# Reference: the supplement of paper PMC11451515
# Tested on: P12-Ichikawa
# Assay: cell viability relative to DMSO control; higher = less cytotoxic
# Details: 48 h
# Procedure, shortened: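 Viability is a per-plate percentage relative to DMSO wells, with cell-free wells as background. CellTiter-Glo One luminescence was read after 48 h at 37°C on 1536-well plates (5 μl) of NOMO1 or SEM (500 cells/well) or P12-Ichikawa (1000 cells/well) leukemia cells. The cells had been adapted for at least four passages in each medium and pin-dosed with library compounds in DMSO from 47 μM to 0.79 nM in 11 threefold steps.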
# [1] = HPLM + 10% dialyzed FBS, 0.000781 µM
# [2] = HPLM + 10% dialyzed FBS, 0.00234 µM
# [3] = HPLM + 10% dialyzed FBS, 0.00702 µM
# [4] = HPLM + 10% dialyzed FBS, 0.0211 µM
# [5] = HPLM + 10% dialyzed FBS, 0.0632 µM
# [6] = HPLM + 10% dialyzed FBS, 0.19 µM
# [7] = HPLM + 10% dialyzed FBS, 0.569 µM
# [8] = HPLM + 10% dialyzed FBS, 1.71 µM
# [9] = HPLM + 10% dialyzed FBS, 5.12 µM
# [10] = HPLM + 10% dialyzed FBS, 15.4 µM
# [11] = HPLM + 10% dialyzed FBS, 46.1 µM
# [12] = RPMI 5 mM glucose + 10% FBS, 0.000781 µM
# [13] = RPMI 5 mM glucose + 10% FBS, 0.00234 µM
# [14] = RPMI 5 mM glucose + 10% FBS, 0.00702 µM
# [15] = RPMI 5 mM glucose + 10% FBS, 0.0211 µM
# [16] = RPMI 5 mM glucose + 10% FBS, 0.0632 µM
# [17] = RPMI 5 mM glucose + 10% FBS, 0.19 µM
# [18] = RPMI 5 mM glucose + 10% FBS, 0.569 µM
# [19] = RPMI 5 mM glucose + 10% FBS, 1.71 µM
# [20] = RPMI 5 mM glucose + 10% FBS, 5.12 µM
# [21] = RPMI 5 mM glucose + 10% FBS, 15.4 µM
# [22] = RPMI 5 mM glucose + 10% FBS, 46.1 µM
# [23] = RPMI 5 mM glucose + 10% dialyzed FBS, 0.000781 µM
# [24] = RPMI 5 mM glucose + 10% dialyzed FBS, 0.00234 µM
# [25] = RPMI 5 mM glucose + 10% dialyzed FBS, 0.00702 µM
# [26] = RPMI 5 mM glucose + 10% dialyzed FBS, 0.0211 µM
# [27] = RPMI 5 mM glucose + 10% dialyzed FBS, 0.0632 µM
# [28] = RPMI 5 mM glucose + 10% dialyzed FBS, 0.19 µM
# [29] = RPMI 5 mM glucose + 10% dialyzed FBS, 0.569 µM
# [30] = RPMI 5 mM glucose + 10% dialyzed FBS, 1.71 µM
# [31] = RPMI 5 mM glucose + 10% dialyzed FBS, 5.12 µM
# [32] = RPMI 5 mM glucose + 10% dialyzed FBS, 15.4 µM
# [33] = RPMI 5 mM glucose + 10% dialyzed FBS, 46.1 µM
Compound,cell viability [1] [%],cell viability [2] [%],cell viability [3] [%],cell viability [4] [%],cell viability [5] [%],cell viability [6] [%],cell viability [7] [%],cell viability [8] [%],cell viability [9] [%],cell viability [10] [%],cell viability [11] [%],cell viability [12] [%],cell viability [13] [%],cell viability [14] [%],cell viability [15] [%],cell viability [16] [%],cell viability [17] [%],cell viability [18] [%],cell viability [19] [%],cell viability [20] [%],cell viability [21] [%],cell viability [22] [%],cell viability [23] [%],cell viability [24] [%],cell viability [25] [%],cell viability [26] [%],cell viability [27] [%],cell viability [28] [%],cell viability [29] [%],cell viability [30] [%],cell viability [31] [%],cell viability [32] [%],cell viability [33] [%]
CCN(CCO)CCCC(C)Nc1ccnc2cc(Cl)ccc12 (centres undefined),99.5,114,114,111,110,105,75.6,112,57.5,14.7,9.45,102,110,110,103,108,106,74.6,105,66.2,27.3,10.7,102,108,106,117,112,103,90.7,102,3.75,56.4,15.4
Cc1ccc(Nc2nccc(N(C)c3ccc4c(C)n(C)nc4c3)n2)cc1[S+](N)(=O)[O-],105,102,105,110,108,114,113,111,104,91.9,20.8,106,115,109,109,113,116,113,111,120,78.4,23.7,99.7,101,104,102,102,99.9,110,107,108,83.3,27.8
CON(C)C(=O)N1\N=C(/S[C@]1(CCCN)C2=CC=CC=C2)C3=CC(=CC=C3F)F,46,13.4,12.4,12.8,13,12.8,14.2,12.1,12.7,11.2,13.1,12,17.2,17.5,16.2,16.8,17.7,16.6,13.6,14.2,12.2,11.2,24.8,28,21.3,21.4,22.5,24.6,21,22.4,19.1,18.3,19.9
COc1ccc(-c2cc3c(C)nc(N)nc3n([C@H]3CC[C@H](OCCO)CC3)c2=O)cn1,103,107,103,85.5,88.3,72,66.2,66,63.9,63.5,48.2,98.2,95.3,85.9,78,70.2,55.1,51.4,44.8,42.7,37.9,35.4,96.6,98.2,85.1,76,72.3,58.7,55.5,45.9,39.3,38.7,37.4
C[C@@H](Oc1ccc2[nH]nc(/C=C/c3cnn(CCO)c3)c2c1)c1c(Cl)cncc1Cl,91.7,88.7,93.6,94.2,94.2,86.2,83.9,88.3,86.2,12.2,51.3,85.9,89.8,89.4,94.3,100,89.5,93.9,89.7,75.9,19.3,38,78.3,92.2,83.8,90.3,94.6,86.1,76.7,86.8,88.6,23.5,41.6
OCCN1CCN(CCCN2c3ccccc3Sc3ccc(C(F)(F)F)cc32)CC1,95.4,98.3,103,109,110,108,73.3,113,74.2,18.2,8.87,107,108,109,123,109,114,87.8,107,74.2,36.6,9.41,99.3,99.7,111,110,107,107,96.4,104,78.7,59.8,12.7
O=P1(NCCCl)OCCCN1CCCl (centres undefined),84,94,88.4,91.6,92.9,88.1,95.1,93.9,91.8,62.5,94.2,82.8,76.7,81.5,85.6,88.8,86.7,87.9,86.1,92,93.2,66.7,77,77.2,75.3,78.1,84.8,82.7,85.9,85.2,87.2,87,79.8
Cc1ccnc(N[S+](=O)([O-])c2ccc(NC(=O)Nc3ccc([S+](=O)([O-])Nc4nccc(C)n4)cc3)cc2)n1,92.4,97.5,104,108,102,47.4,56.9,7.44,8.58,9.29,7.33,87.9,85.5,94.6,106,114,58.6,60.3,7.51,7.48,8.73,5.6,86.9,97.1,95.4,101,102,46.7,59.4,7.71,7.35,8.39,5.02
